Molecular target: benzodiazepine site of the GABAA receptor
Test: GABAA receptor binding assay (displacement of 3H-Ro15-1788)
Settings: rat cortical tissue homogenate, 0.5 nM 3H-Ro15-1788 [3H-Flumazenil], 30 min at 4° C.

SMILES: CC1CC(=O)c2c(C(=O)Nc3ccc(OCCO)nc3)c[nH]c2C1 (stereo not shown) [Compound 15, N-[(2-Hydroxyethoxy)pyrid-5-yl]-4-oxo-6-methyl-4,5,6,7-tetrahydro-1H-indole-3-carboxamide]
- Ki: 12 nM
